The IC50 is the concentration that inhibits the measured activity by half. A high value points to a need for much substance.

The record followed here is BindingDB's records for doi:10.1021/jm00164a028 (Wyeth Research, 1990).

This assay has as its target Thromboxane-A synthase (Oryctolagus cuniculus). The assay is described as follows: Inhibition of Thromboxane A2 synthetase in rabbit platelets.
Turning to `CCOC(=O)C1=C(Cn2ccnc2)N=C(C)C(C(=O)OCC)C1c1cccc([N+](=O)[O-])c1` (stereo not drawn), the IC50 amounted to 1.4 µM. As for `CCOC(=O)C1=C(Cn2ccnc2)N=C(C)C(C(=O)OC)C1c1ccccc1[N+](=O)[O-]` (stereo not drawn), the figure is 3.2 µM.

`CCOC(=O)C1=C(Cn2ccnc2)N=C(C)C(C(=O)OC)C1c1cccc([N+](=O)[O-])c1` (stereo not drawn) returned an IC50 of 5 µM. In turn, `CCOC(=O)C1=C(Cn2ccnc2)N=C(C)C(C(=O)OC(C)C)C1c1cccc([N+](=O)[O-])c1` (stereo not drawn) yielded a concentration for half-maximal inhibition (IC50) of 2 µM. Then `CCOC(=O)C1=C(COCCn2ccnc2)N=C(C)C(C(=O)OC)C1c1cccc([N+](=O)[O-])c1` (stereo not drawn), with 115 µM. As for `CCOC(=O)C1=C(Cn2ccnc2)N=C(C)C(C(=O)OC)C1c1cccc(C(F)(F)F)c1Cl` (stereo not drawn), the figure is 16 µM.

Regarding `CCOC(=O)C1=C(Cn2ccnc2)N=C(C)C(C(=O)OC(C)(C)C)C1c1cccc([N+](=O)[O-])c1` (stereo not drawn), the IC50 amounted to 23 µM. Then `CCOC(=O)C1=C(CCn2ccnc2)N=C(C)C(C(=O)OCC)C1c1cccc([N+](=O)[O-])c1` (stereo not drawn), with 11 µM.
